Consider 59 sequences from the OligoGym collection.

These antisense oligonucleotides have a phosphorothioate backbone; sugars and methylation of C are not fully specified.
Further: test concentration or dose not given here.

One data set addresses MAP2K2. As to conditions: ASO.
Turning to CTGGTTCAGCCGCAGGGT, the remaining target (mRNA or protein) (fraction of control) was determined as 0.34.

ATGATCTGGTTCCGGATG registered a remaining target (mRNA or protein) (fraction of control) of 0.35.

With TCACCCCGAAGTCACACA, the remaining target (mRNA or protein) (fraction of control) is 0.56.

The target of the next data set is RELA. The following applies: ASO.
For TGTATCTGGCAGGTACTG, the remaining target (mRNA or protein) (fraction of control) is ≥ 1.

Sequence AGCCTGGTCCCGTGAAAT showed a remaining target (mRNA or protein) (fraction of control) of 0.5.

For the sequence ACCTGGAAGCAGAGCCGC, the remaining target (mRNA or protein) (fraction of control) stood at 0.31.

In the case of TCACTAGGCGAGTTATAG, the remaining target (mRNA or protein) (fraction of control) amounted to 0.53.

In the case of CAGGTCCCGCTTCTTCAC, the remaining target (mRNA or protein) (fraction of control) amounted to 0.33.

ATGAGGAAGGACAGGCGG: the remaining target (mRNA or protein) (fraction of control) was ≥ 1.

Take AAAGGAGCCTCGGGCCTC: the remaining target (mRNA or protein) (fraction of control) came out at 0.37.

In turn, CCTGGTCCTGTGTAGCCA came in with a remaining target (mRNA or protein) (fraction of control) of 0.78.

As for GCACTTGTAGCGGAAGCG, the remaining target (mRNA or protein) (fraction of control) was ≥ 1.

In turn, AGGTATGCCCTGGTTCAG came in with a remaining target (mRNA or protein) (fraction of control) of 0.61.

Take CAATGTCCTCTTTCTGCA: the remaining target (mRNA or protein) (fraction of control) was determined as 0.78.

Sequence TCACACAGTAGGAAGATC showed a remaining target (mRNA or protein) (fraction of control) of 0.74.

Take CGTAGTCCCCACGCTGCT: the remaining target (mRNA or protein) (fraction of control) was determined as 0.29.

In turn, TTGGTGGTATCTGTGCTC returned a remaining target (mRNA or protein) (fraction of control) of 0.53.

For AGAGCCGCACAGCATTCA, the remaining target (mRNA or protein) (fraction of control) was 0.46.

Take TAGCCATTGATCTTGATG: the remaining target (mRNA or protein) (fraction of control) is 0.78.

The next data set addresses BIRC5. As to conditions: ASO.
Consider AAAGAGAGAGAGAGAGAG, for which the remaining target (mRNA or protein) (fraction of control) is 0.82.

Consider ATGACAGGGAGGAGGGCG, for which the remaining target (mRNA or protein) (fraction of control) is ≥ 1.

In the case of ACAGTTGAAACATCTAAT, the remaining target (mRNA or protein) (fraction of control) is ≥ 1.

As to GCGATTCAAATCTGGCGG, the remaining target (mRNA or protein) (fraction of control) is ≥ 1.

With CTGTCTCCTCATCCACCT, the remaining target (mRNA or protein) (fraction of control) came to 0.59.

Take AAAAGGAGTATCTGCCAG: the remaining target (mRNA or protein) (fraction of control) worked out at 0.61.

Regarding TCCAGCTCCTTGAAGCAG, the remaining target (mRNA or protein) (fraction of control) was determined as 0.68.

Sequence TCGCAGTTTCCTCAAATT gave a remaining target (mRNA or protein) (fraction of control) of 0.63.

In turn, AAGCAGCCACTGTTACCA yielded a remaining target (mRNA or protein) (fraction of control) of 0.36.

For the sequence AGGGACACTGCCTTCTTC, the remaining target (mRNA or protein) (fraction of control) is 0.57.

For the sequence GGTTAATTCTTCAAACTG, the remaining target (mRNA or protein) (fraction of control) is ≥ 1.

Turning to ACAGGCAGAAGCACCTCT, the remaining target (mRNA or protein) (fraction of control) was ≥ 1.

For the sequence TACGCCAGACTTCAGCCC, the remaining target (mRNA or protein) (fraction of control) turned out to be 0.99.

GAGGAGCGGCCAGCATGT returned a remaining target (mRNA or protein) (fraction of control) of 0.53.

Regarding ACTGTGGAAGGCTCTGCC, the remaining target (mRNA or protein) (fraction of control) was ≥ 1.

TCCCTCACTTCTCACCTG returned a remaining target (mRNA or protein) (fraction of control) of 0.71.

As to TGTTGTTAAACAGTAGAG, the remaining target (mRNA or protein) (fraction of control) is ≥ 1.

Turning to TCTTGGCTCTTTCTCTGT, the remaining target (mRNA or protein) (fraction of control) was determined as 0.66.

The sequence GGCTGACAGACACACGGC returned a remaining target (mRNA or protein) (fraction of control) of 0.59.

With TTCTTGAATGTAGAGATG, the remaining target (mRNA or protein) (fraction of control) was ≥ 1.

With TTTGAAAATGTTGATCTC, the remaining target (mRNA or protein) (fraction of control) was found to be 0.92.

Take GCTTCTTGACAGAAAGGA: the remaining target (mRNA or protein) (fraction of control) was 0.65.

CCTCTGCCAACGGGTCCC: the remaining target (mRNA or protein) (fraction of control) is 0.96.

As for GCCGAGATGACCTCCAGA, the remaining target (mRNA or protein) (fraction of control) was determined as 0.34.

AGGACTGTGACAGCCTCA yielded a remaining target (mRNA or protein) (fraction of control) of 0.38.

In turn, CCTGGAAGTGGTGCAGCC displayed a remaining target (mRNA or protein) (fraction of control) of 0.84.

On to CTTTCAAGACAAAACAGG, for which the remaining target (mRNA or protein) (fraction of control) is ≥ 1.

With GGCGCAGCCCTCCAAGAA, the remaining target (mRNA or protein) (fraction of control) stood at 0.62.

TGTGCTATTCTGTGAATT showed a remaining target (mRNA or protein) (fraction of control) of 0.8.

With CAAGTCTGGCTCGTTCTC, the remaining target (mRNA or protein) (fraction of control) is ≥ 1.

Consider CCGTGTGGAGAACGTGAC, for which the remaining target (mRNA or protein) (fraction of control) amounted to 0.78.

In turn, CCACGCGAACAAAGCTGT gave a remaining target (mRNA or protein) (fraction of control) of 0.38.

Regarding ACAGGAAGGCTGGTGGCA, the remaining target (mRNA or protein) (fraction of control) was determined as 0.3.

GACTTAGAATGGCTTTGT yielded a remaining target (mRNA or protein) (fraction of control) of 0.63.

For GGTCGTCATCTGGCTCCC, the remaining target (mRNA or protein) (fraction of control) stood at 0.64.

CGATGGCACGGCGCACTT: the remaining target (mRNA or protein) (fraction of control) worked out at 0.28.

In the case of TCAGATTCAACAGGCACC, the remaining target (mRNA or protein) (fraction of control) was ≥ 1.

In turn, ATTCTCTAATCACACACA had a remaining target (mRNA or protein) (fraction of control) of 0.74.

The sequence TGAGAAAGGGCTGCCAGG came in with a remaining target (mRNA or protein) (fraction of control) of 0.54.

Turning to TCTTATTGTTGGTTTCCT, the remaining target (mRNA or protein) (fraction of control) is ≥ 1.
